According to patent US8324190B2, “Treatment of proliferative disorders with amino-substituted (E)-2,6- dialkoxystyryl 4-substituted benzylsulfones” (Temple University—Of The Commonwealth System of Higher …, priority 2002, dated 2012):
Where a name gives a salt, the structure may show the parent alone.

Experiments:
Experiment in all cases: Tumor cell viability assay, Trypan blue exclusion
Type in all cases: cell-based
Conditions in all cases: cell viability after 96 hours
[1] = test system: breast adenocarcinoma cell line BT-20
Method: (§1) BT-20 is an estrogen-unresponsive cell line. NIH/3T3 and HFL are normal murine and human fibroblasts, respectively. BT-20, DLD-1 and H157 were grown in Dulbecco's modified Eagle's medium (DMEM) containing 10% fetal bovine serum supplemented with penicillin and streptomycin. DU145 was cultured in RPMI with 10% fetal bovine serum containing penicillin and streptomycin. NIH3T3 and HFL cells were grown in DMEM containing 10% calf serum supplemented with penicillin and streptomycin. Cells were plated at density levels of 1.0×10^5 cells per well in six-well plates. Cell cultures were maintained at 37° C. in a humidified atmosphere of 5% CO2. Cells were treated with compounds of the invention at various concentrations. Cell viability was determined after 96 hours by the Trypan blue exclusion method. […] The number of viable cells remaining after 96 hours of treatment was determined using hemacytometer following trypan blue staining. The number of viable cells has been plotted as the percent of Vehicle treated (control) cells.

[2] = test system: colorectal carcinoma cell line DLD-1
Method: as §1

[3] = test system: non-small cell lung carcinoma cell line H157
Method: as §1

[4] = test system: prostate carcinoma cell line DU-145
Method: as §1

Measured: IC50

COC(=O)Nc1cc(CS(=O)(=O)/C=C/c2c(OC)cc(OC)cc2OC)ccc1OC [Example 41, (E)-2,4,6-trimethoxystyryl-3-(methoxycarbonylamino)-4-methoxy-benzylsulfone]
< 10 µM: all assays above

COc1ccc(S(=O)(=O)Nc2cc(CS(=O)(=O)/C=C/c3c(OC)cc(OC)cc3OC)ccc2OC)cc1 [Example 42, (E)-2,4,6-trimethoxystyryl-3-(4-methoxybenzenesulfamyl)-4-methoxybenzylsulfone]
< 10 µM: all assays above

COc1cc(OC)c(/C=C/S(=O)(=O)Cc2ccc(OC)c(NC(=O)C(C)OC(C)=O)c2)c(OC)c1 (centres unmarked) [Example 43, (E)-2,4,6-trimethoxystyryl-3-(2-acetoxypropionamido)-4-methoxybenzylsulfone]
< 10 µM: all assays above

COC(=O)CCC(=O)Nc1cc(CS(=O)(=O)/C=C/c2c(OC)cc(OC)cc2OC)ccc1OC [Example 44, (E)-2,4,6-trimethoxystyryl-3-(methylsuccinamido)-4-methoxy-benzylsulfone]
< 10 µM: all assays above

COc1cc(OC)c(/C=C/S(=O)(=O)Cc2ccc(OC)c(NC(=O)C(F)(F)C(F)(F)F)c2)c(OC)c1 [Example 46, (E)-2,4,6-trimethoxystyryl-3-(pentafluoropropionamido)-4-methoxybenzylsulfone]
< 10 µM: all assays above

COC(=O)C(F)(F)C(=O)Nc1cc(CS(=O)(=O)/C=C/c2c(OC)cc(OC)cc2OC)ccc1OC [Example 47, (E)-2,4,6-trimethoxystyryl-3-(methyl-2,2-difluoromalonamido)-4-methoxybenzylsulfone]
< 10 µM: all assays above

COc1cc(OC)c(/C=C/S(=O)(=O)Cc2ccc(OC)c(NC(=O)C(F)(F)C(F)(F)C(=O)O)c2)c(OC)c1 [Example 48, (E)-2,4,6-Trimethoxystyryl-3-(2,2,3,3,tetrafluorosuccinamido)-4-methoxybenzylsulfone]
< 10 µM: all assays above

COc1cc(OC)c(/C=C/S(=O)(=O)Cc2ccc(OC)c(NC(=O)CN)c2)c(OC)c1 [Example 49, (E)-2,4,6-Trimethoxy-styryl-3-(aminoacetamido)-4-methoxy-benzylsulfone, hydrochloride]
< 10 µM: all assays above

(E)-2,4,6-Trimethoxystyryl-3-amino-4-methoxybenzylsulfone-D-serineamide [Example 15]
< 10 µM: all assays above

(E)-2,4,6-Trimethoxystyryl-3-amino-4-methoxybenzylsulfone-L-lysineamide [Example 13]
< 10 µM: all assays above

(E)-2,4,6-Trimethoxystyryl-3-amino-4-methoxybenzylsulfone-L-serineamide [Example 14]
< 10 µM: all assays above
